Assay results reported in patent US20090163586A1, “Bis-(Sulfonylamino) Derivatives in Therapy 205” (AstraZeneca AB, priority 2007, published 2009).

These compounds were tested against T1, human mPGES-1 (Homo sapiens, UniProt O14684) (assay: Microsomal prostaglandin E synthase biochemical assay). Conditions: microsome preparation containing human mPGES-1; PGH2 10.8 μM, GSH 2.5 mM, pH 6.8; PGE2 by HTRF; average of at least n=2.
T1 sequence (O14684 1-152): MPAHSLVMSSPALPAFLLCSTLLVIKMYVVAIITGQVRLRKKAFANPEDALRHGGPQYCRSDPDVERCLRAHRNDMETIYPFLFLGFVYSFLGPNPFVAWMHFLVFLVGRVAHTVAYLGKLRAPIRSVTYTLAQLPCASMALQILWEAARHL
In short: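 Human mPGES-1 microsomes at 2 μg/mL were pre-incubated 15 min with compound (60 μM to 0.002 μM) in 50 mM potassium phosphate pH 6.8 with 2.5 mM GSH. The reaction was started with 10.8 μM PGH2 and stopped after 1 minute with acidic ferric chloride/citrate. PGE2 was quantified by HTRF; IC50 is the mean of at least 2 runs.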
`Cc1ccc(NS(=O)(=O)/C=C/c2ccc(Br)cc2)c(S(N)(=O)=O)c1` [Example 98, 2-[[(E)-2-(4-Bromophenyl)ethenyl]sulfonylamino]-5-methyl-benzenesulfonamide] gave an IC50 of 0.68 µM.
`Cc1ccc(S(N)(=O)=O)c(NS(=O)(=O)CCc2ccc(Cl)c(Cl)c2)c1` [Example 200] was tested, and the IC50 was 1.4 µM.
For `CC(C)(C)C#Cc1ccc(CCS(=O)(=O)Nc2ccc(CO)cc2S(N)(=O)=O)cc1` [Example 211, 2-{2-[4-(3,3-Dimethyl-but-1-ynyl)-phenyl]-ethanesulfonylamino}-5-hydroxymethyl-benzenesulfonamide], the IC50 was 0.075 µM.
For `N#Cc1ccc(NS(=O)(=O)CCc2ccc(Cl)c(Cl)c2)c(S(N)(=O)=O)c1` [Example 199, 5-Cyano-2-(2-(3,4-dichlorophenyl)ethylsulfonamido)benzenesulfonamide], the IC50 was 2.5 µM.
Work on `NS(=O)(=O)c1ccccc1NS(=O)(=O)CCc1ccc(C2CCCO2)cc1` (stereo not shown) [Example 17, 2-[2-[4-(Oxolan-2-yl)phenyl]ethylsulfonylamino]benzenesulfonamide] yielded an IC50 of 5.3 µM.
`NS(=O)(=O)c1cc(F)ccc1NS(=O)(=O)CCc1ccc(Cl)cc1` [Example 21, 2-[2-(4-Chlorophenyl)ethylsulfonylamino]-5-fluoro-benzenesulfonamide] was tested, and the IC50 was 0.32 µM.
For `Cc1ccc(NS(=O)(=O)/C=C/c2ccc(C(F)(F)F)cc2)c(S(N)(=O)=O)c1` [Example 97, 5-Methyl-2-[[(E)-2-[4-(trifluoromethyl)phenyl]ethenyl]sulfonylamino]-benzenesulfonamide], the IC50 was 3.4 µM.
Work on `NS(=O)(=O)c1ccccc1NS(=O)(=O)CCc1ccc(C2Cc3ccccc3O2)cc1` (stereo not shown) [Example 2, 2-[2-[4-(2,3-Dihydrobenzofuran-2-yl)phenyl]ethylsulfonylamino]benzenesulfonamide] yielded an IC50 of 0.27 µM.
Compound `NS(=O)(=O)c1ccccc1NS(=O)(=O)c1ccc(Oc2ccc(Cl)cc2)cc1` [Example 175, 2-[[4-(4-Chlorophenoxy)phenyl]sulfonylamino]benzenesulfonamide] has an IC50 of 3.7 µM.
`CN1CCOc2cc(S(=O)(=O)Nc3ccccc3S(N)(=O)=O)ccc21` [Example 123, 7-Methyl-N-(2-sulfamoylphenyl)-10-oxa-7-azabicyclo[4.4.0]deca-1,3,5-triene-3-sulfonamide] showed an IC50 of 9.3 µM.
Work on `NS(=O)(=O)c1ccccc1NS(=O)(=O)CCc1ccc2ccccc2c1` [Example 110, 2-(2-Naphthalen-2-ylethylsulfonylamino)benzenesulfonamide] yielded an IC50 of 0.49 µM.
Work on `NS(=O)(=O)c1c(F)cccc1NS(=O)(=O)/C=C/c1ccc(C(F)(F)F)cc1` [Example 90, 2-Fluoro-6-[[(E)-2-[4-(trifluoromethyl)phenyl]ethenyl]sulfonylamino]-benzenesulfonamide] yielded an IC50 of 0.87 µM.
With `NS(=O)(=O)c1ccccc1NS(=O)(=O)/C=C/c1ccc(-c2ccco2)cc1` [Example 18, 2-[[(E)-2-[4-(2-Furyl)phenyl]ethenyl]sulfonylamino]benzenesulfonamide] the IC50 was 0.044 µM.
`NS(=O)(=O)c1ccccc1NS(=O)(=O)c1cccc(-c2cccc(Cl)c2Cl)c1` [Example 113, 2-[[3-(2,3-Dichlorophenyl)phenyl]sulfonylamino]benzenesulfonamide] was tested, and the IC50 was 0.48 µM.
For `NS(=O)(=O)c1ccccc1NS(=O)(=O)/C=C/c1ccc(Cl)cc1` [Example 73, 2-[[(E)-2-(4-Chlorophenyl)ethenyl]sulfonylamino]benzenesulfonamide], the IC50 was 0.29 µM.
Compound `NS(=O)(=O)c1cccc(F)c1NS(=O)(=O)/C=C/c1cccc(C(F)(F)F)c1` [Example 65, 3-Fluoro-2-[[(E)-2-[3-(trifluoromethyl)phenyl]ethenyl]sulfonylamino]-benzenesulfonamide] has an IC50 of 3.8 µM.
Compound `NS(=O)(=O)c1ccccc1NS(=O)(=O)CCc1ccc(Cl)cc1` [Example 72, 2-[2-(4-Chlorophenyl)ethylsulfonylamino]benzenesulfonamide] has an IC50 of 0.49 µM.
With `COc1ccccc1CCS(=O)(=O)Nc1ccccc1S(N)(=O)=O` [Example 109, 2-[2-(2-Methoxyphenyl)ethylsulfonylamino]benzenesulfonamide] the IC50 was 6.1 µM.
Compound `NS(=O)(=O)c1ccccc1NS(=O)(=O)CCc1ccc(-c2ccco2)cc1` [Example 16, 2-[2-[4-(2-Furyl)phenyl]ethylsulfonylamino]benzenesulfonamide] has an IC50 of 0.19 µM.
`C/C(=C\S(=O)(=O)Nc1ccccc1S(N)(=O)=O)c1ccc(Cl)cc1` [Example 86, 2-[[(E)-2-(4-Chlorophenyl)prop-1-enyl]sulfonylamino]benzenesulfonamide] was tested, and the IC50 was 0.7 µM.
Compound `NS(=O)(=O)c1ccccc1NS(=O)(=O)c1cccc(-c2ccc(CO)cc2)c1` [Example 172, 2-[[3-[4-(Hydroxymethyl)phenyl]phenyl]sulfonylamino]benzenesulfonamide] has an IC50 of 7.3 µM.
For `NS(=O)(=O)c1ccccc1NS(=O)(=O)/C=C/c1ccccc1Cl` [Example 48, 2-[2-(2-Chloro-phenyl)-ethenesulfonylamino]-benzenesulfonamide], the IC50 was 0.59 µM.
Work on `NS(=O)(=O)c1ccccc1NS(=O)(=O)c1cccc(-c2ccc3c(c2)CCO3)c1` [Example 137, 2-[[3-(2,3-Dihydrobenzofuran-5-yl)phenyl]sulfonylamino]benzenesulfonamide] yielded an IC50 of 2.1 µM.
`N#Cc1ccc(/C=C/S(=O)(=O)Nc2ccccc2S(N)(=O)=O)cc1` [Example 33, 2-[[(E)-2-(4-Cyanophenyl)ethenyl]sulfonylamino]benzenesulfonamide] gave an IC50 of 1.1 µM.
`NS(=O)(=O)c1c(F)cccc1NS(=O)(=O)/C=C/c1ccccc1C(F)(F)F` [Example 89, 2-Fluoro-6-[[(E)-2-[2-(trifluoromethyl)phenyl]ethenyl]sulfonylamino]-benzenesulfonamide] was tested, and the IC50 was 2.8 µM.
`NS(=O)(=O)c1ccccc1NS(=O)(=O)c1cccc(-c2cccc(CO)c2)c1` [Example 171, 2-[[3-[3-(Hydroxymethyl)phenyl]phenyl]sulfonylamino]benzenesulfonamide] gave an IC50 of 1.7 µM.
`NS(=O)(=O)c1c(F)cc(F)cc1NS(=O)(=O)c1cccc(Cl)c1Cl` [Example 196, 2,3-Dichloro-N-(3,5-difluoro-2-sulfamoylphenyl)benzenesulfonamide] showed an IC50 of 1.9 µM.
In the case of `N#Cc1cccc(-c2cccc(S(=O)(=O)Nc3ccccc3S(N)(=O)=O)c2)c1` [Example 116, 2-[[3-(3-Cyanophenyl)phenyl]sulfonylamino]benzenesulfonamide], the IC50 is reported as 1.7 µM.
